From PMC6522912, “Evaluation of the published kinase inhibitor set to identify multiple inhibitors of bacterial ATP-dependent mur ligases” (Journal of Enzyme Inhibition and Medicinal Chemistry, 2019)

Experiments:
[1] = biological target: E. coli MurF (Escherichia coli, UniProt P11880); assay: biochemical; details: for remaining activity at 100 µM: 0.25 h, read-out: RA [%] at 100 µM MurF; for remaining activity at 100 µM / RA [%] at 100 µM MurF: Table S1, PKIS screening
[2] = biological target: E. coli MurD (Escherichia coli, UniProt P14900); assay: biochemical; details: for remaining activity at 100 µM: 0.25 h, Table S1, PKIS screening, read-out: RA [%] at 100 µM MurD
E. coli MurD, sequence (P14900 whole entry): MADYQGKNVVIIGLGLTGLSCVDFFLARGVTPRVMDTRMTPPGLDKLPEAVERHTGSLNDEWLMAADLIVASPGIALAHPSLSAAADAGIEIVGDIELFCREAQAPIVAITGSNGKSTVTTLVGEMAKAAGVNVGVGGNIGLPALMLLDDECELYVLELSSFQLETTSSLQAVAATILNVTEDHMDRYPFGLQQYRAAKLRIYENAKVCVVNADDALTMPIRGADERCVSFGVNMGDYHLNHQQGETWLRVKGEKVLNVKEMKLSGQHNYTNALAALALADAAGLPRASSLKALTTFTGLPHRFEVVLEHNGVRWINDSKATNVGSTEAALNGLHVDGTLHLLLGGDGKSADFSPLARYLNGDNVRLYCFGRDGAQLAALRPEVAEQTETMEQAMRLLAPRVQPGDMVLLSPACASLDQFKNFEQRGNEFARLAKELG
In short: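 Reaction 15 min at 37 °C, then phosphate detected with Biomol green at 650 nm. Values are residual activity versus 5% DMSO carrier controls.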

[3] = biological target: E. coli MurC (Escherichia coli, UniProt P17952); assay: Malachite green inhibition assay, MurC; type: biochemical; details: for remaining activity at 100 µM: 0.25 h, read-out: RA [%] at 100 µM MurC; for remaining activity at 100 µM / RA [%] at 100 µM MurC: Table S1, PKIS screening
E. coli MurC, sequence (P17952 whole entry): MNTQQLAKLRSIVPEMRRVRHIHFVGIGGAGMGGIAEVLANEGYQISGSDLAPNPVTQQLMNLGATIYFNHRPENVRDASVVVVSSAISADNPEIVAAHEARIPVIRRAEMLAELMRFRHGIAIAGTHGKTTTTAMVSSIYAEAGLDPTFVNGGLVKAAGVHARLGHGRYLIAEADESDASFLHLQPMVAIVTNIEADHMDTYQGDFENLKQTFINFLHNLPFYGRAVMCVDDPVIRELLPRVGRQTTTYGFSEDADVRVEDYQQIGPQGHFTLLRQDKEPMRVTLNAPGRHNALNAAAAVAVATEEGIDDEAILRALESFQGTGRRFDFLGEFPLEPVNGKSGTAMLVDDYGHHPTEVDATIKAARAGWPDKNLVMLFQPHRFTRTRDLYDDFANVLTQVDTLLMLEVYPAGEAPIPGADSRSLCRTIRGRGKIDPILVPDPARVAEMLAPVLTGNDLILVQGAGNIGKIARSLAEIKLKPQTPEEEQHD

[4] = Table S3, aza stilbene compounds

E. coli MurF, sequence (P11880 whole entry): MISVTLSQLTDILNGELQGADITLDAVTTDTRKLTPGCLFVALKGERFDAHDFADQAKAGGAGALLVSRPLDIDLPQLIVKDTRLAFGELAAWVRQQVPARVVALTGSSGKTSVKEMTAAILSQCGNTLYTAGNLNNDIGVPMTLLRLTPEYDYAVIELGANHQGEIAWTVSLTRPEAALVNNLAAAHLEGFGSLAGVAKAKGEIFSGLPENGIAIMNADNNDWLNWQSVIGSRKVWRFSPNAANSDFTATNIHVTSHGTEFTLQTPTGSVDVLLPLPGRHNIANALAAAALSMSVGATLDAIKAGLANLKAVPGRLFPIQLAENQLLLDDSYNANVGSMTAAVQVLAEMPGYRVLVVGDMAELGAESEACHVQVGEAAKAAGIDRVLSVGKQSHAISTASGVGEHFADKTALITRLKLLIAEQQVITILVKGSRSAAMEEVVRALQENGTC

Structure (SMILES) | remaining activity at 100 µM [1] [%] | remaining activity at 100 µM [2] [%] | remaining activity at 100 µM [3] [%] | further results
COc1ccc(-c2nn3ncccc3c2-c2ccnc(Nc3ccc(F)c(F)c3)n2)cc1 [GW827396X] | 61 | 61 | 79 | –
Cc1nnc(-c2ccc(C)c(-c3ccc(C(=O)NCc4ccc(Cl)cc4)cc3)c2)o1 [GW708893X] | 94 | 100 | 100 | –
Cc1cc(Cl)cc2c1NC(=O)C2=NNc1ccc(S(N)(=O)=O)cc1 [GW279320X] | 0 | 78 | 76 | –
COc1cc2ncn(-c3cc(OCCc4ccccc4)c(C(N)=O)s3)c2cc1OC [GSK204925A] | 63 | 68 | 56 | –
CN(C)CCOc1ccc(-c2nc(-c3ccncc3)c(-c3ccc4c(c3)CC/C4=N\O)[nH]2)cc1 [SB-590885-AAD] | – | – | – | RA [%] at 100 µM MurF [1]: 100%; RA [%] at 100 µM MurD [2]: 100; RA [%] at 100 µM MurC [3]: 74%
COc1cc(Nc2ncc(-c3ccccc3)o2)cc(OC)c1OC [GW627512B] | 100 | 72 | 98 | –
Fc1ccc(-c2nn3ccccc3c2-c2ccncc2)cc1 [GW434756X] | 94 | 68 | 74 | –
N#Cc1ccc2c(-c3ccnc(NC4CC4)n3)c(-c3ccc(F)cc3)nn2c1 [GW561436X] | 77 | 76 | 87 | –
O=C(Nc1n[nH]c2nc(-c3ccco3)c(Br)cc12)C1CC1 [SB-739452] | 87 | 84 | 78 | –
O=C(Nc1n[nH]c2cc(-c3cc(F)ccc3F)ccc12)C1CC1 [SB-735465] | 82 | 80 | 59 | –
COC(=O)Nc1nc2ccc(Oc3ccc(NC(=O)Nc4ccccc4)cc3)cc2[nH]1 [GW694590A] | 75 | 99 | 62 | –
CNC(=O)c1cncc(/C=C/c2c(C)cccc2C)c1 [GW445012X] | 54 | 83 | 85 | –
Cc1ccc(O)cc1Nc1ccnc2cc(-c3ccccn3)ccc12 [GW440139B] | – | – | – | RA [%] at 100 µM MurF [1]: 66%; RA [%] at 100 µM MurD [2]: 73; RA [%] at 100 µM MurC [3]: 73%
CCn1cc(-c2ccnc3[nH]ccc23)c(-c2cccc(NC(=O)Nc3ccc(OCc4ccccc4)cc3)c2)n1 [GSK718429A] | 99 | 83 | 94 | –
Nc1nccc(-c2c(-c3ccc(F)cc3)ncn2CCCN2CCOCC2)n1 [SB-216385] | 98 | 96 | 77 | –
NC(=O)c1ccc2c(-c3ccnc(NCCCO)n3)c(-c3ccc(F)cc3)nn2c1 [GW581744X] | 79 | 74 | 73 | –
CCc1cccc(NC(=O)Nc2ccc(Oc3ccc4nc(NC(=O)OC)[nH]c4c3)cc2)c1 [GW673715X] | 68 | 83 | 79 | –
NS(=O)(=O)c1cccc(-c2ccc3c(NC(=O)C4CC4)n[nH]c3c2)c1 [SB-741905] | 88 | 98 | 72 | –
COc1cc(N2CCN(C(C)C)CC2)ccc1Nc1nc(Nc2ccc(F)cc2C(=O)NC[C@@H](O)CO)c2cc[nH]c2n1 [GSK1392956A] | 90 | 76 | 65 | –

Structure (SMILES) | remaining activity at 100 µM [1] [%] | remaining activity at 100 µM [2] [%] | remaining activity at 100 µM [3] [%] | further results
CN(C)C(=O)O[C@H]1CN[C@H](C#Cc2cc3ncnc(Nc4ccc(OCc5cccc(F)c5)c(Cl)c4)c3s2)C1 [GSK182497A] | 76 | 65 | 43 | –
Nc1nccc(-c2c(-c3ccc(F)cc3)ncn2C2CCNCC2)n1 [SB-220025-A] | – | – | – | RA [%] at 100 µM MurF [1]: 96%; RA [%] at 100 µM MurD [2]: 99; RA [%] at 100 µM MurC [3]: 98%
CS(=O)(=O)CCNCc1cc(-c2cc3c(Nc4ccc(OCc5cccc(F)c5)c(Cl)c4)ncnc3s2)cs1 [GSK300014A] | 95 | 91 | 88 | –
Nc1nccc(-c2c(-c3ccc(F)cc3)ncn2C2CCC(O)CC2)n1 (stereo not drawn) [SB-223133] | 88 | 87 | 64 | –
COc1cc2ncnc(Nc3ccc4c(cnn4Cc4ccccc4)c3)c2cc1OC [GW282449A] | 56 | 62 | 53 | –
CCc1nccc2c1nc(-c1nonc1N)n2CC [SB-751148] | 88 | 96 | 75 | –
Fc1ccc(-c2c(-c3ccncc3)nc3n2CCS3)cc1 [SKF-86055] | 89 | 91 | 98 | –
CN1CCC(C(=O)Nc2n[nH]c3nc(-c4ccc(O)cc4)c(Br)cc23)CC1 [SB-732881] | 90 | 84 | 71 | –
Nc1nc(-c2ccccn2)c(-c2ccc3ncccc3n2)s1 [GW693481X] | 94 | 88 | 99 | –
CNC(=O)c1cncc(C=Cc2ccccc2C)c1 [Compound 8] | – | – | – | RA (%) MurF [1, 4]: 85%; RA (%) MurD [2]: 91%; RA (%) MurC [3, 4]: 100%
NC(=O)c1ccc(-c2nc(-c3ccc4c(c3)OCO4)c(-c3ccccn3)[nH]2)cc1 [SB-431542-A] | – | – | – | RA [%] at 100 µM MurF [1]: 100%; RA [%] at 100 µM MurD [2]: 90; RA [%] at 100 µM MurC [3]: 59%
Fc1ccc(-c2ncn(CCCN3CCOCC3)c2-c2ccncc2)cc1 [SB-210313] | 100 | 91 | 100 | –
NS(=O)(=O)c1ccc(-c2ccc3c(NC(=O)C4CC4)n[nH]c3c2)cc1 [SB-738482] | 83 | 83 | 75 | –
O=C(O[C@H]1CN[C@H](C#Cc2cc3ncnc(Nc4ccc(OCc5cccc(F)c5)c(Cl)c4)c3s2)C1)N1CCOCC1 [GW869810X] | 77 | 55 | 65 | –
CS(=O)(=O)CCNCc1ccc(-c2ccc3ncnc(Nc4ccc(OCc5ccccc5)c(Cl)c4)c3c2)o1 [GW574783B] | 79 | 37 | 58 | –
COc1ccc(Nc2ncc(-c3ccccc3)o2)cc1OC [GW575533A] | 71 | 93 | 79 | –
CN(C)CCNC(=O)Nc1ccc(N(C)c2ccnc(Nc3ccc(CS(C)(=O)=O)cc3)n2)cc1 [GW830900A] | 75 | 91 | 74 | –
O=C(Nc1n[nH]c2nc(-c3ccc(O)cc3)c(Br)cc12)C1CC1 [SB-725317] | 89 | 96 | 84 | –
